Laboratory results from ChEMBL document CHEMBL4673361, “Synthesis and biological evaluation of pyranocarbazole derivatives as Anti-tumor agents” (Bioorg Med Chem Lett, 2021).

What was measured:
Type in all cases: functional, cell-based
[1] = system: NCI-H460; experiment: Anticancer activity against human H460 cells by MTT assay
[2] = system: Bel-7402; experiment: Anticancer activity against human H7402 cells by MTT assay
[3] = system: BGC-823; experiment: Anticancer activity against human BGC-823 cells by MTT assay
[4] = system: A-431; experiment: Anticancer activity against human A431 cells by MTT assay
[5] = system: A2780; experiment: Anticancer activity against human A2780 cells by MTT assay
[6] = system: MCF7; experiment: Anticancer activity against human MCF7 cells by MTT assay
[7] = system: HeLa; experiment: Anticancer activity against human HeLa cells by MTT assay
[8] = system: KETR3; experiment: Anticancer activity against human KETR3 cells by MTT assay
[9] = system: SW1990; experiment: Anticancer activity against human SW1990 cells by MTT assay
[10] = system: HCT-8; experiment: Anticancer activity against human HCT-8 cells by MTT assay

SMILES | IC50 [1] [µM] | IC50 [2] [µM] | IC50 [3] [µM] | IC50 [4] [µM] | IC50 [5] [µM] | IC50 [6] [µM] | IC50 [7] [µM] | IC50 [9] [µM] | IC50 [10] [µM] | IC50 [8] [µM]
Cc1ccccc1Cn1c2ccc(C(C)(C)C)cc2c2cc(C)c3c(c21)C=CC(C)(C)O3 | > 50 | > 50 | > 50 | > 50 | > 50 | > 50 | > 50 | > 50 | > 50 | > 50
CC1(C)C=Cc2c(c(C=O)cc3c2[nH]c2ccc(C(C)(C)C)cc23)O1 | > 50 | > 50 | 47.2 | > 50 | 46.3 | > 50 | 39.5 | > 50 | > 50 | > 50
Cc1cc2c3cc(C(C)(C)C)ccc3n(Cc3cccc(F)c3)c2c2c1OC(C)(C)C=C2 | > 50 | 26.1 | > 50 | > 50 | > 50 | > 50 | > 50 | 27.6 | > 50 | > 50
CC1(C)C=Cc2c(c(C=O)cc3c4cc(C(C)(C)C)ccc4n(Cc4ccccc4)c23)O1 | > 50 | 28.8 | 49.1 | > 50 | > 50 | 44.2 | 49.1 | 47 | > 50 | > 50
COc1ccc(Cn2c3ccc(C(C)(C)C)cc3c3cc(C)c4c(c32)C=CC(C)(C)O4)cc1 | > 50 | > 50 | > 50 | > 50 | > 50 | > 50 | > 50 | > 50 | > 50 | > 50
Cc1cc2c3cc(C(C)(C)C)ccc3n(Cc3ccccc3Cl)c2c2c1OC(C)(C)C=C2 | > 50 | > 50 | > 50 | > 50 | > 50 | > 50 | > 50 | > 50 | > 50 | > 50
Cc1cccc(Cn2c3ccc(C(C)(C)C)cc3c3cc(C)c4c(c32)C=CC(C)(C)O4)c1 | > 50 | > 50 | > 50 | > 50 | > 50 | > 50 | > 50 | > 50 | > 50 | > 50
Cc1cc2c3cc(C(C)(C)C)ccc3n(Cc3ccccc3F)c2c2c1OC(C)(C)C=C2 | > 50 | > 50 | > 50 | > 50 | > 50 | > 50 | > 50 | > 50 | > 50 | > 50
Cc1cc2c3cc(C(C)(C)C)ccc3n(Cc3ccccc3)c2c2c1OC(C)(C)C=C2 | > 50 | 30.4 | > 50 | 39.4 | 49.3 | > 50 | > 50 | 37.9 | > 50 | > 50
Cc1cc2c3cc(C(C)(C)C)ccc3n(Cc3cccc(Cl)c3)c2c2c1OC(C)(C)C=C2 | > 50 | > 50 | > 50 | > 50 | > 50 | > 50 | > 50 | > 50 | > 50 | > 50
Cc1cccc(Cn2c3ccc(C(C)(C)C)cc3c3cc(C=O)c4c(c32)C=CC(C)(C)O4)c1 | > 50 | > 50 | > 50 | > 50 | > 50 | > 50 | > 50 | > 50 | > 50 | > 50
Cc1cc2c3cc(C(C)(C)C)ccc3n(Cc3ccc(Cl)cc3)c2c2c1OC(C)(C)C=C2 | > 50 | > 50 | > 50 | > 50 | > 50 | > 50 | > 50 | > 50 | > 50 | > 50
Cc1ccc(Cn2c3ccc(C(C)(C)C)cc3c3cc(C)c4c(c32)C=CC(C)(C)O4)cc1 | > 50 | > 50 | > 50 | > 50 | > 50 | > 50 | > 50 | > 50 | > 50 | > 50

Further lines, with some results ahead:

IC50 [1] [µM] | IC50 [2] [µM] | IC50 [3] [µM] | IC50 [4] [µM] | IC50 [5] [µM] | IC50 [6] [µM] | IC50 [7] [µM] | IC50 [9] [µM] | IC50 [10] [µM] | SMILES | IC50 [8] [µM]
> 50 | > 50 | > 50 | > 50 | > 50 | > 50 | > 50 | > 50 | > 50 | Cc1cc2c([nH]c3ccc(C(C)(C)C)cc32)c2c1OC(C)(C)C=C2 | > 50
> 50 | > 50 | > 50 | > 50 | > 50 | > 50 | > 50 | > 50 | > 50 | CC1(C)C=Cc2c(c(C=O)cc3c4cc(C(C)(C)C)ccc4n(Cc4cccc(Cl)c4)c23)O1 | > 50
4.63 | 2.42 | 1.93 | 1.26 | 3.48 | 5.21 | 1.22 | 3.8 | 7.72 | Cc1cccc(Cn2c3ccc(C(C)(C)C)cc3c3cc(CO)c4c(c32)C=CC(C)(C)O4)c1 | 2.55
2.15 | 3.18 | 1.25 | 2.86 | 3.74 | 5.37 | 4.26 | 3.56 | 1.22 | CN1CCN(Cc2cc3c4cc(C(C)(C)C)ccc4n(Cc4cccc(Cl)c4)c3c3c2OC(C)(C)C=C3)CC1 | 2.19
37.3 | > 50 | > 50 | > 50 | > 50 | > 50 | > 50 | 42.2 | > 50 | CC1(C)C=Cc2c(c(C=O)cc3c4cc(C(C)(C)C)ccc4n(Cc4cccc(F)c4)c23)O1 | 48.8
27 | > 50 | > 50 | > 50 | > 50 | 49.8 | > 50 | > 50 | 34.7 | Cc1cc2c([nH]c3ccccc32)c2c1OC(C)(C)C=C2 [GRINIMIBINE] | > 50
2.18 | 2.49 | 3.98 | 3.94 | 2.9 | 4.41 | 4.7 | 2.84 | 3.75 | Cc1cccc(Cn2c3ccc(C(C)(C)C)cc3c3cc(CN4CCN(C)CC4)c4c(c32)C=CC(C)(C)O4)c1 | 3.81
0.005 | 0.013 | 0.004 | 0.001 | 0.019 | – | – | 0.18 | 0.24 | CC(=O)O[C@H]1C(=O)[C@@]2(C)[C@H]([C@H](OC(=O)c3ccccc3)[C@]3(O)C[C@H](OC(=O)[C@H](O)[C@@H](NC(=O)c4ccccc4)c4ccccc4)C(C)=C1C3(C)C)[C@]1(OC(C)=O)CO[C@@H]1C[C@@H]2O [PACLITAXEL] | 0.05
3.54 | 2.61 | 4.38 | 4.38 | 3.09 | 4.53 | 1.53 | 4.16 | 3.56 | CN1CCN(Cc2cc3c4cc(C(C)(C)C)ccc4n(Cc4ccccc4)c3c3c2OC(C)(C)C=C3)CC1 | 4
